Data reported in ChEMBL document CHEMBL4376847, “Aryl Trehalose Derivatives as Vaccine Adjuvants for Mycobacterium tuberculosis” (J Med Chem, 2020).
The source made the active and inactive calls. No cut-off for these calls is given here.

Assays:
[1] = target: T1, C-type lectin domain family 4 member E (Homo sapiens) (UniProt Q9ULY5); assay: Agonist activity at Mincle in human PBMC assessed as increase in TNF-alpha production at 1 to 1000 uM incubated for 18 to 24 hrs by ELISA
T1 sequence (whole entry): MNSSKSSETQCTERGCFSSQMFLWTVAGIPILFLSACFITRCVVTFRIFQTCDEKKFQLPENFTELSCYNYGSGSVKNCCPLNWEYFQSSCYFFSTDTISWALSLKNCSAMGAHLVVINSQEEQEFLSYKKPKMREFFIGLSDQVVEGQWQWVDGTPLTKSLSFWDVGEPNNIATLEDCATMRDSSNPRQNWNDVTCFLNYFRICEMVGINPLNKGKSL

[2] = target: T1, C-type lectin domain family 4 member E (Homo sapiens); assay: Agonist activity at Mincle in human PBMC assessed as increase in IL-6 secretion at 0.1 to 100 uM incubated for 18 to 24 hrs by luminex multiplex assay
[3] = target: T1, C-type lectin domain family 4 member E (Homo sapiens); assay: Agonist activity at Mincle in human PBMC assessed as increase in IL-1beta secretion at 0.1 to 100 uM incubated for 18 to 24 hrs by luminex multiplex assay
[4] = target: T1, C-type lectin domain family 4 member E (Homo sapiens); assay: Agonist activity at Mincle in human PBMC assessed as increase in IL-23 at 0.1 to 100 uM incubated for 18 to 24 hrs by luminex multiplex assay
[5] = target: T1, C-type lectin domain family 4 member E (Homo sapiens); assay: Agonist activity at Mincle in human PBMC assessed as increase in TNF-alpha level at 0.1 to 100 uM incubated for 18 to 24 hrs by luminex multiplex assay
[6] = target: T2, C-type lectin domain family 4 member E (Mus musculus) (UniProt Q9R0Q8); assay: Agonist activity at Mincle in mouse RAW264.7 cells assessed as TNF-alpha secretion at 0.1 to 100 uM incubated for 18 to 24 hrs by ELISA; assay type: cell-based
T2 sequence (whole entry): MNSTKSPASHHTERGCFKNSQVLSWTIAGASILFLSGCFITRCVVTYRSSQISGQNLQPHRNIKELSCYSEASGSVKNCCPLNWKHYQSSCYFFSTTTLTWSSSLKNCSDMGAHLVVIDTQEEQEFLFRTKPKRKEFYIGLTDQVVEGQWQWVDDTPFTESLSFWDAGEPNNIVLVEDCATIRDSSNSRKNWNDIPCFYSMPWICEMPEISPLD

[7] = target: T2, C-type lectin domain family 4 member E (Mus musculus); assay: Agonist activity at Mincle in mouse RAW264.7 cells assessed as IL-6 production at 0.1 to 100 uM incubated for 18 to 24 hrs by ELISA; assay type: cell-based
[8] = target: T1, C-type lectin domain family 4 member E (Homo sapiens); assay: Agonist activity at Mincle in human PBMC assessed as TNF-alpha secretion at 0.1 to 100 uM incubated for 18 to 24 hrs by ELISA
[9] = target: T1, C-type lectin domain family 4 member E (Homo sapiens); assay: Agonist activity at human Mincle receptor expressed in human HEK cells assessed as NF-kappaB activation incubated for 24 hrs by SEAP reporter gene assay; assay type: cell-based
[10] = target: T2, C-type lectin domain family 4 member E (Mus musculus); assay: Agonist activity at mouse Mincle receptor expressed in human HEK cells assessed as NF-kappaB activation incubated for 24 hrs by SEAP reporter gene assay; assay type: cell-based
Mus musculus [11] = assay: Immuno-adjuvant activity in M72-immunized BALB/c mouse assessed as potentiation of antibody response to M72 by measuring serum anti-M72 IgG2a level at 10 nmol, im administered immediately and 14 and measured after 14 days by ELISA; assay type: functional, organism-based
Mus musculus [12] = assay: Immuno-adjuvant activity in M72-immunized BALB/c mouse assessed as potentiation of antibody response to M72 by measuring CD4+ IL-17A T-cells at 2 to 50 nmol, im administered immediately and 14 and measured after 5 days by immuno staining based flow cytometry; assay type: functional, organism-based
Mus musculus [13] = assay: Immuno-adjuvant activity in B42-immunized BALB/c mouse assessed as potentiation of antibody response to B42 by measuring CD4+ IL-17A T-cells at 2 to 50 nmol, im administered immediately and 14 and measured after 5 days by immuno staining based flow cytometry; assay type: functional, organism-based
Mus musculus [14] = assay: Immuno-adjuvant activity in M72-immunized BALB/c mouse assessed as potentiation of antibody response to M72 by measuring IFNgamma at 2 to 50 nmol, im administered immediately and 14 and measured after 5 days by immuno staining based flow cytometry; assay type: functional, organism-based
Mus musculus [15] = assay: Immuno-adjuvant activity in M72-immunized BALB/c mouse assessed as potentiation of antibody response to M72 by measuring IL-5 at 2 to 50 nmol, im administered immediately and 14 and measured after 5 days by immuno staining based flow cytometry; assay type: functional, organism-based
Mus musculus [16] = assay: Immuno-adjuvant activity in M72-immunized BALB/c mouse assessed as potentiation of antibody response to M72 by measuring serum anti-M72 IgG level at 10 nmol, im administered immediately and day 14 and measured after 14 days by ELISA; assay type: functional, organism-based
Mus musculus [17] = assay: Immuno-adjuvant activity in M72-immunized BALB/c mouse assessed as potentiation of antibody response to M72 by measuring serum anti-M72 IgG1 level at 10 nmol, im administered immediately and 14 and measured after 14 days by ELISA; assay type: functional, organism-based

**Q.** For `COc1ccc(/C=C/C(=O)OC[C@H]2O[C@H](O[C@H]3O[C@H](COC(=O)/C=C/c4ccc(OC)c(OC)c4)[C@@H](O)[C@H](O)[C@H]3O)[C@H](O)[C@@H](O)[C@@H]2O)cc1OC`, which Activity [1] is on record?
**A.** Active

**Q.** And the Activity [2]?
**A.** Active

**Q.** And the Activity [3]?
**A.** Active

**Q.** What about the Activity [4] of the same molecule?
**A.** Active

**Q.** What about the Activity [5] of the same molecule?
**A.** Active

**Q.** What does the source list for `CC(C)(C)c1cc(C(=O)OC[C@H]2O[C@H](O[C@H]3O[C@H](COC(=O)c4cc(C(C)(C)C)c(O)c(C(C)(C)C)c4)[C@@H](O)[C@H](O)[C@H]3O)[C@H](O)[C@@H](O)[C@@H]2O)cc(C(C)(C)C)c1O`?
**A.** Activity [6]: Active; Activity [7]: inactive; Activity [8]: Active

**Q.** Which results are given for `CCCCCCCCCCCCCCCCCCCCCC(=O)OC[C@H]1O[C@H](O[C@H]2O[C@H](COC(=O)CCCCCCCCCCCCCCCCCCCCC)[C@@H](O)[C@H](O)[C@H]2O)[C@H](O)[C@@H](O)[C@@H]1O`?
**A.** Activity [9]: inactive; Activity [10]: inactive; Activity (Mus musculus [11]): Active; Activity (Mus musculus [12]): Active; Activity (Mus musculus [13]): Active; Activity (Mus musculus [14]): inactive; Activity (Mus musculus [15]): inactive

**Q.** How did the Activity (Mus musculus [16]) turn out when `CCCCCCCC(CCCCCCC)C(=O)OC[C@H]1O[C@H](O[C@H]2O[C@H](COC(=O)C(CCCCCCC)CCCCCCC)[C@@H](O)[C@H](O)[C@H]2O)[C@H](O)[C@@H](O)[C@@H]1O` was run?
**A.** Active

**Q.** What about the Activity (Mus musculus [17]) of the same molecule?
**A.** Active

**Q.** And the Activity (Mus musculus [11])?
**A.** Active

**Q.** `COc1cc(C)c(C(=O)OC[C@H]2O[C@H](O[C@H]3O[C@H](COC(=O)c4c(C)cc(OC)cc4OC)[C@@H](O)[C@H](O)[C@H]3O)[C@H](O)[C@@H](O)[C@@H]2O)c(OC)c1` was tested. Which Activity [1] did it give?
**A.** Active

**Q.** And the Activity [2]?
**A.** Active

**Q.** What about the Activity [3] of the same molecule?
**A.** Active

**Q.** What about the Activity [4] of the same molecule?
**A.** Active

**Q.** And the Activity [5]?
**A.** Active

**Q.** For `CCCCCCCCCCCCCCCCCCCCCCC(C(=O)OC[C@H]1O[C@H](O[C@H]2O[C@H](COC(=O)C(CCCCCCCCCCCCCCCCCCCCCC)C(O)CCCCCCCCCCCCCCCCCC3CC3CCCCCCCCCCCCCCC3CC3CCCCCCCCCCCCCCCCCC)[C@@H](O)[C@H](O)[C@H]2O)[C@H](O)[C@@H](O)[C@@H]1O)C(O)CCCCCCCCCCCCCCCCCC1CC1CCCCCCCCCCCCCCC1CC1CCCCCCCCCCCCCCCCCC` (some centres not stated), which Activity [9] is on record?
**A.** inactive

**Q.** What about the Activity [10] of the same molecule?
**A.** inactive

**Q.** With `COc1cc(/C=C/C(=O)OC[C@H]2O[C@H](O[C@H]3O[C@H](COC(=O)/C=C/c4cc(OC)c(OC)c(OC)c4)[C@@H](O)[C@H](O)[C@H]3O)[C@H](O)[C@@H](O)[C@@H]2O)cc(OC)c1OC` as the molecule, how does the Activity [1] read?
**A.** Active

**Q.** What about the Activity [2] of the same molecule?
**A.** Active

**Q.** What about the Activity [3] of the same molecule?
**A.** Active

**Q.** And the Activity [4]?
**A.** Active

**Q.** What about the Activity [5] of the same molecule?
**A.** Active

**Q.** Which Activity [1] does the source give for `CC(C)(C)c1cc(C(=O)OC[C@H]2O[C@H](O[C@H]3O[C@H](COC(=O)c4cc(C(C)(C)C)cc(C(C)(C)C)c4O)[C@@H](O)[C@H](O)[C@H]3O)[C@H](O)[C@@H](O)[C@@H]2O)c(O)c(C(C)(C)C)c1` here?
**A.** Active

**Q.** What about the Activity [2] of the same molecule?
**A.** Active

**Q.** What about the Activity [3] of the same molecule?
**A.** Active

**Q.** And the Activity [4]?
**A.** Active

**Q.** And the Activity [5]?
**A.** Active

**Q.** And the Activity [9]?
**A.** Dose-dependent effect

**Q.** What about the Activity [10] of the same molecule?
**A.** Dose-dependent effect

**Q.** And the Activity (Mus musculus [16])?
**A.** inactive

**Q.** What about the Activity (Mus musculus [17]) of the same molecule?
**A.** inactive

**Q.** And the Activity (Mus musculus [11])?
**A.** Active

**Q.** What about the Activity (Mus musculus [12]) of the same molecule?
**A.** Active

**Q.** And the Activity (Mus musculus [14])?
**A.** inactive

**Q.** And the Activity (Mus musculus [15])?
**A.** inactive

**Q.** Which results are given for `CC(C)(C)c1ccc(O)c(C(=O)OC[C@H]2O[C@H](O[C@H]3O[C@H](COC(=O)c4cc(C(C)(C)C)ccc4O)[C@@H](O)[C@H](O)[C@H]3O)[C@H](O)[C@@H](O)[C@@H]2O)c1`?
**A.** Activity [6]: Active; Activity [7]: inactive; Activity [8]: Active

**Q.** What does the source list for `CC(C)(C)c1cc(C(C)(C)C)c(O)c(C(=O)OC[C@H]2O[C@H](O[C@H]3O[C@H](COC(=O)c4c(O)c(C(C)(C)C)cc(C(C)(C)C)c4O)[C@@H](O)[C@H](O)[C@H]3O)[C@H](O)[C@@H](O)[C@@H]2O)c1O`?
**A.** Activity [6]: Active; Activity [7]: inactive; Activity [8]: Active

**Q.** Which results are given for `CC(C)(C)c1cc(C(=O)OC[C@H]2O[C@H](O[C@H]3O[C@H](COC(=O)c4cc(C(C)(C)C)cc(C(C)(C)C)c4)[C@@H](O)[C@H](O)[C@H]3O)[C@H](O)[C@@H](O)[C@@H]2O)cc(C(C)(C)C)c1`?
**A.** Activity [6]: Active; Activity [7]: inactive; Activity [8]: Active

**Q.** For `CCOc1cc(OCC)cc(C(=O)OC[C@H]2O[C@H](O[C@H]3O[C@H](COC(=O)c4cc(OCC)cc(OCC)c4)[C@@H](O)[C@H](O)[C@H]3O)[C@H](O)[C@@H](O)[C@@H]2O)c1`, which Activity [1] is on record?
**A.** Active

**Q.** What about the Activity [2] of the same molecule?
**A.** Active

**Q.** What about the Activity [3] of the same molecule?
**A.** Active

**Q.** What about the Activity [4] of the same molecule?
**A.** Active

**Q.** And the Activity [5]?
**A.** Active
